{
  "source": "the NIST ThermoML archive (doi:10.1021/je300852v)",
  "test": "mean ionic activity coefficient (dimensionless); mn = molality of the nth substance listed, in mol/kg",
  "conditions": "298.15 K, 101 kPa, Liquid, 2 term dubye huckel",
  "note": "± gives the expanded uncertainty stated by the source.",
  "data": [
    {"molecule": "[Ca+2].[Cl-].[Cl-]", "note": "[calcium chloride] + O", "values": [
      {"measurement": "mean ionic activity coefficient", "setting": "m1 = 0.01", "result": "0.728 ± 0.001"},
      {"measurement": "mean ionic activity coefficient", "setting": "m1 = 0.02", "result": "0.664 ± 0.001"},
      {"measurement": "mean ionic activity coefficient", "setting": "m1 = 0.05", "result": "0.576 ± 0.001"},
      {"measurement": "mean ionic activity coefficient", "setting": "m1 = 0.1", "result": "0.517 ± 0.001"},
      {"measurement": "mean ionic activity coefficient", "setting": "m1 = 0.2", "result": "0.47 ± 0.001"},
      {"measurement": "mean ionic activity coefficient", "setting": "m1 = 0.3", "result": "0.453 ± 0.001"},
      {"measurement": "mean ionic activity coefficient", "setting": "m1 = 0.4", "result": "0.448 ± 0.001"},
      {"measurement": "mean ionic activity coefficient", "setting": "m1 = 0.5", "result": "0.449 ± 0.001"},
      {"measurement": "mean ionic activity coefficient", "setting": "m1 = 0.6", "result": "0.454 ± 0.001"},
      {"measurement": "mean ionic activity coefficient", "setting": "m1 = 0.7", "result": "0.462 ± 0.001"},
      {"measurement": "mean ionic activity coefficient", "setting": "m1 = 0.8", "result": "0.473 ± 0.001"},
      {"measurement": "mean ionic activity coefficient", "setting": "m1 = 0.9", "result": "0.487 ± 0.001"},
      {"measurement": "mean ionic activity coefficient", "setting": "m1 = 1", "result": "0.502 ± 0.001"},
      {"measurement": "mean ionic activity coefficient", "setting": "m1 = 1.2", "result": "0.54 ± 0.001"},
      {"measurement": "mean ionic activity coefficient", "setting": "m1 = 1.4", "result": "0.586 ± 0.001"},
      {"measurement": "mean ionic activity coefficient", "setting": "m1 = 1.6", "result": "0.643 ± 0.001"},
      {"measurement": "mean ionic activity coefficient", "setting": "m1 = 1.8", "result": "0.71 ± 0.001"},
      {"measurement": "mean ionic activity coefficient", "setting": "m1 = 2", "result": "0.79 ± 0.001"},
      {"measurement": "mean ionic activity coefficient", "setting": "m1 = 2.5", "result": "1.064 ± 0.001"},
      {"measurement": "mean ionic activity coefficient", "setting": "m1 = 3", "result": "1.49 ± 0.001"}
    ]}
  ]
}
